Broadly, the IC50 is the concentration needed to halve the response being measured. In general, AUC(0-t) refers to the area under the concentration-time curve up to a stated or last time point. As a reminder, the Cmax is the highest concentration seen after dosing. The term Tmax denotes the time at which the peak concentration occurs.

A short description of data set [1]: Metabolic stability in liver hepatocytes, mouse. The class given is in vitro ADME. The conditions noted are these: for half-life: read-out: t1/2 mean ± SE.
In another data set the test system is UT-SCC-24A. As to the kind of experiment: Tumor cell proliferation (alamarBlue) cytotoxicity assay, UT-SCC-24A. The class given is cell-based, human. The conditions noted are these: Homo sapiens, 72 hours treatment. As to the method: A tumor cell proliferation assay was used to determine cytotoxicity IC50 values for the phosphate prodrug Compounds 1-9, the parent non-phosphorylated SMDC parent compounds, and the effector (gemcitabine) across eight primary early-passage human head and neck squamous cell carcinoma cell lines including UT-SCC-5, UT-SCC-8, UT-SCC-9, UT-SCC-10, UT-SCC-14, UT-SCC-16A, UT-SCC-16B, and UT-SCC-24A.
UTSCC cells were seeded at 4000 cells/100 I/well on 96-well black clear-bottom tissue culture plate. Cells were incubated at 37° C. and 5% CO2 overnight to allow them to recover and re-attach. The next day cells were treated with the test compound (0-100 μM) for 72 hours. After treatment, cell proliferation was measured by Fluorescent quantitation of alamarBlue reagent. The alamarBlue assay incorporates a fluorometric/colorimetric growth indicator based on detection of metabolic activity. Specifically, resazurin, the active ingredient of alamarBlue reagent, is blue in color and virtually non-fluorescent. Upon entering cells, resazurin is reduced to resorufin, a compound that is red in color and highly fluorescent.
Continued cell growth maintains a reduced environment, therefore increasing the overall fluorescence and color of the media surrounding cells. The fluorescence intensity of alamarBlue reagent was directly proportional to cell number. To perform the alamarBlue assay, 10 I of alamarBlue reagent was added to each well and the plate was incubated at 37° C. for an additional 2 hour. Fluorescence intensity was measured at an excitation of 530 nm and an emission of 590 nm using a BioTek Synergy™ 2 microplate reader.
Cell proliferation assays in triplicate were performed at each concentration. The fluorescent intensity data were analyzed using the computer software, Graphpad Prism. In the absence of the compound, the fluorescent intensity (Ft) in each data set was defined as 100%. In the absence of cells, the fluorescent intensity (Fb) in each data set was defined as 0%. The percent cell in the presence of each compound was calculated according to the following equation: % cell=(F−Fb)/(Ft−Fb), where F=the fluorescent intensity in the presence of the compound, Fb=the fluorescent intensity in the absence of cells, and Ft=the fluorescent intensity in the absence of the compound. The values of % cell versus a series of compound concentrations were then plotted using non-linear regression analysis of Sigmoidal dose-response curve generated with the equation Y=B+(T−B)/1+10^((Log EC50-X)×Hill Slope) where Y=percent cell, B=minimum percent cell, T=maximum percent cell, X=logarithm of compound and Hill Slope=slope factor or Hill coefficient. The IC50 value was determined by the concentration causing a half-maximal percent activity.
For orientation: The colour change of resazurin is a common sign of viable cells or microbes.

Data set [2] in a line: Plasma PK of Int 3-3 in CD-1 mice (study c). The conditions noted are these: after iv Int 3-3 8.8 mg/kg. The class given is in vivo. As to the method:
Objectives: to determine the plasma pharmacokinetics of Int 3-3 following a single intravenous infusion of Int 3-3 at 8.83 mg/kg in CD-1 mice
PK measurements: compare PK parameters C0, CL, Vdss, Cmax, tmax, t1/2, AUC(0-t), AUC(0-inf), MRT(0-t), MRT(0-inf) for Int 3-3.

Data set [3] is described as follows: Monkey liver S9 stability. The conditions noted are these: for microsomal CLint: monkey. The class given is in vitro ADME.
The nature of another data set: Rat liver S9 stability. The class given is in vitro ADME. The conditions noted are these: for microsomal CLint: rat.
A short description of data set [4]: Metabolic stability in liver hepatocytes, across species. The conditions noted are these: mouse, dog, monkey, rat highest, human lowest, read-out: intrinsic clearance values Cint. The data set is classed as in vitro ADME.
The next data set is described as follows: Dog liver S9 stability. The class given is in vitro ADME. The conditions noted are these: for microsomal CLint: dog.
The nature of another data set: Human liver S9 stability. The data set is classed as in vitro ADME. The conditions noted are these: for microsomal CLint: human.
The nature of data set [5]: CD-1 mouse plasma stability. The class given is in vitro ADME. How it is done:
Method: Assay was carried out in 96-well microtiter plates. Compounds were incubated in replicates (n=2) for 0, 5, 15, 30, and 45 minutes at 37° C. Reaction mixtures (20 μL) contained a final concentration of 3 μM test compound in fresh CD-1 mouse plasma. Eucatropine included as positive control to verify assay performance. Linear regression of semi-log plot of % remaining of compounds versus time used to determine the half-life t1/2 values.

The nature of the next data set: Solubility / formulation. The data set is classed as physicochemical.
Data set [6] is described as follows: Liver microsomal stability, mouse. The data set is classed as in vitro ADME. The conditions noted are these: mouse liver microsomes. Background: Liver microsomes are vesicles of endoplasmic reticulum, rich in cytochrome P450 enzymes.
Another data set in a line: Human plasma stability. The data set is classed as in vitro ADME. As to the method:
Method: Assay was carried out in 96-well microtiter plates. Compounds were incubated in replicates (n=2) for 0, 5, 15, 30, and 45 minutes at 37° C. Reaction mixtures (20 μL) contained a final concentration of 3 μM test compound in human plasma. Eucatropine included as positive control to verify assay performance. Linear regression of semi-log plot of % remaining of compounds versus time used to determine the half-life t½ values.

Data set [7] is described as follows: Liver microsomal stability, rat. The conditions noted are these: rat liver microsomes. The class given is in vitro ADME.

Like-named read-outs stand apart in the source and are kept apart here. Some results are limits rather than exact numbers.

With `Nc1ccn([C@@H]2O[C@H](CO)[C@@H](O)C2(F)F)c(=O)n1` [Gemcitabine, gemcitabine], in [1], the “Slope Mean ± SE” value is recorded as −0.000512 ± 0.001111 and the half-life is 1350 ± 2930 min. Also, the IC50 in the data set on UT-SCC-24A is 14 nM. In [2], the AUC0-inf/AUC0-last was found to be 113%. In [2] (mouse), this molecule had an AUC(0-t) of 63.5 ng·h/mL and a half-life of 82.8 min. For the same molecule, the AUC(0-inf) in [2] (mouse, read-out: AUC0-inf) worked out at 71.9 ng·h/mL. Also, the Cmax in [2] (mouse, read-out: Cmax) worked out at 73.4 ng/mL. Moreover, in data set [2] (mouse, read-out: MRT0-inf), the MRT inf was 1.69 h. In [2] (mouse, read-out: MRT0-last), the MRT last worked out at 1.13 h. Further, the Tmax in data set [2] (mouse, read-out: Tmax) is 3.67 min.
In data set [2], `O=c1ccn(C2OC(CO)C(O)C2(F)F)c(=O)[nH]1` (stereo not shown) [dFdU] gave an AUC0-inf/AUC0-last of 146%, an AUC0-last of 942 ng·h/mL, an AUC(0-inf) of 1403 ng·h/mL and a Cmax of 168 ng/mL. In data set [2], the MRT0-inf is reported as 7.48 h, the MRT0-last is given as 3.67 h, the T1/2 was 5.22 h and the Tmax worked out at 240 min.
Regarding `COc1cc(OC)c2oc(COC(=O)Nc3ccn([C@@H]4O[C@H](CO)[C@@H](O)C4(F)F)c(=O)n3)cc2c1` [Int 1-4, (5,7-di(methoxy)benzofuran-2-yl)methyl (1-((2R,4R,5R)-3,3-difluoro-4-hydroxy-5-(hydroxymethyl)tetrahydrofuran-2-yl)-2-oxo-1,2-dihydropyrimidin-4-yl)carbamate], the “Slope Mean ± SE” value in data set [1] is recorded as −0.006655 ± 0.00081; in data set [3] (monkey liver S9) it was −0.03881 ± 0.002089; in “Rat liver S9 stability” (rat liver S9), −0.03579 ± 0.001471; in the data set “Dog liver S9 stability” (dog liver S9), −0.005558 ± 0.000749; in “Human liver S9 stability” (human liver S9) it was −0.005545 ± 0.000717; in data set [5] (3 μM, 37° C., in min-1 (unit assumed)), −0.000906 ± 0.000706. Besides, the “Slope Mean ± SE” value in the data set “Human plasma stability” (3 μM, 37° C., semi-log plot of % remaining versus time, in min-1 (unit assumed)) is 0.001033 ± 0.001249. In addition, the half-life was determined as 104 ± 12.7 min in [1]; 17.9 ± 1 min in [3] (monkey liver S9, read-out: t1/2 Mean ± SE); 19.4 ± 0.8 min in “Rat liver S9 stability” (rat liver S9, read-out: t1/2 Mean ± SE); 125 ± 16.8 min in “Dog liver S9 stability” (dog liver S9, read-out: t1/2 Mean ± SE); 125 ± 16.2 min in “Human liver S9 stability” (human liver S9, read-out: t1/2 Mean ± SE); 81.2 min in [6]. In data set [7], this molecule yielded a half-life of 4.66 min. Also, in the data set on UT-SCC-24A, the IC50 came to 20 nM. The microsomal CLint in data set [3] (liver S9, monkey liver S9, summary, read-out: S9 intrinsic clearance Clint) is < 2.5 µL/min/mg; in data set [3] (liver S9, monkey liver S9, read-out: CLint Mean ± SE) it was 15.5 ± 0.836 µL/min/mg; in data set [3] (liver S9, monkey liver S9 experiment, read-out: intrinsic clearance value) it was 15.5 µL/min/mg; in the data set “Rat liver S9 stability” (liver S9, rat liver S9, text value, read-out: intrinsic clearance value), 14.3 µL/min/mg; in the data set “Rat liver S9 stability” (liver S9, rat liver S9, read-out: CLint Mean ± SE), 14.3 ± 0.588 µL/min/mg; in [4], 3 to 8 µL/min/mg. The microsomal CLint in “Dog liver S9 stability” (liver S9, dog liver S9, read-out: CLint Mean ± SE) was 2.22 ± 0.299 µL/min/mg; in the data set “Dog liver S9 stability” (liver S9, dog liver S9 experiment, read-out: intrinsic clearance value), 2.2 µL/min/mg; in the data set “Human liver S9 stability” (liver S9, human liver S9, summary, read-out: S9 intrinsic clearance Clint), < 2.5 µL/min/mg; in “Human liver S9 stability” (liver S9, human liver S9, text value, read-out: intrinsic clearance value), 2.22 µL/min/mg; in “Human liver S9 stability” (liver S9, human liver S9, read-out: CLint Mean ± SE) it was 2.22 ± 0.287 µL/min/mg; in [6], 17.1 µL/min/mg. Also, the microsomal CLint in [7] was found to be 297 µL/min/mg. Further, the intrinsic clearance value in the data set “Rat liver S9 stability” (rat liver S9, text value) is reported as ~14 μL/min/mg protein; in the data set “Dog liver S9 stability” (dog liver S9 experiment) it was < 2.5 μL/min/mg protein. Further, the half-life at 3 μM was 765 ± 596 min in [5] (fresh CD-1 mouse plasma, 3 μM, 37° C., read-out: t1/2 Mean ± SE) and ~780 min in data set [5] (read-out: t1/2 (converted)). For the same molecule, the solubility entry in the data set “Solubility / formulation” is given as “low to moderate solubility”. Also, the “formulated to” value in the data set “Solubility / formulation” (formulation) stood at 50 mg/mL. Besides, the “Compound Remaining (% of 0 min) 0 min” value in data set [6] (0 min) and in data set [7] (0 min) was 100 % of 0 min in each case. Moreover, the figures for the “Compound Remaining (% of 0 min) 5 min” value in data set [6] (5 min) and in data set [7] (5 min) were 102 % of 0 min and 64.7 % of 0 min, respectively. Further, the “Compound Remaining (% of 0 min) 15 min” value in [6] (15 min) is 78.4 % of 0 min; in data set [7] (15 min), 20.0 % of 0 min. Besides, the “Compound Remaining (% of 0 min) 30 min” value was 73.6 % of 0 min in [6] (30 min) and 1.81 % of 0 min in data set [7] (30 min). For the same molecule, the “Compound Remaining (% of 0 min) 45 min” value was 70.7 % of 0 min in data set [6] (45 min) and 0.13 % of 0 min in [7] (45 min). For the same molecule, the results for the “Compound Remaining (% of 0 min) control” value in [6] (control) and in data set [7] (control) were 93.2 % of 0 min and 95.6 % of 0 min, respectively. Also, in “Human plasma stability” (repeat measurements), the “stability in human plasma” value is “stable”. In data set [7], the CLint was 297 μL/min/mg protein.

The values above are taken from US11760773B2, “Small molecule drug conjugates of gemcitabine monophosphate” (MaveriX Oncology, Inc., priority 2018, dated 2023).
